{"source": "ChEMBL document CHEMBL1926640", "about": "“Structure-based rational design of novel hit compounds for pyruvate dehydrogenase multienzyme complex E1 components from Escherichia coli” (Bioorg Med Chem, 2011)"}
{"test": "Inhibition of Escherichia coli PDHc-E1 expressed in Escherichia coli TB1 using sodium pyruvate as substrate after 3 mins by 2,6-DCIP reduction assay", "units": {"IC50": "µM"}}
{"smiles": "Cc1ncc(Cn2cc(COc3ccccc3)nn2)c(N)n1", "IC50": 55.1}
{"smiles": "Cc1ncc(Cn2cc(COc3ccc([N+](=O)[O-])cc3)nn2)c(N)n1", "IC50": 8.8}
{"smiles": "Cc1ncc(Cn2cc(COc3ccc(C(=O)O)cc3)nn2)c(N)n1", "IC50": 15.1}
{"smiles": "Cc1ncc(Cn2cc(COc3ccc([N+](=O)[O-])cc3Cl)nn2)c(N)n1", "IC50": 6.88}
